Results taken from US20220409617A1, “Drug Formulations and Methods of Treatment for Metabolic Disorders” (The Regents of the University of California, priority 2019, published 2022).

Tests used:
[1] = Plasma pharmacokinetics in mice; format: in vivo; conditions: mouse, po, single dose 120 mg/kg by gavage
Experimental: Plasma pharmacokinetic analysis of sphingolipid-like compound 893 was performed by Pharmaron Corporation (Beijing, China). C16:0 ceramide levels were quantified in cells using the method described in (T. Kasumov, et al., Anal. Biochem. 401: 154-161, 2010, the disclosure of which is incorporated herein by reference) with minor modifications. Cultured cells were washed twice in PBS and scraped into 250 μL of HPLC grade water and flash frozen until time of analysis. On the day of analysis, samples were thawed, and an aliquot used for protein quantification. For C16:0 ceramide levels in mouse liver, 25 mg of tissue was homogenized in 1 ml of ice-cold PBS using a mechanical probe homogenizer (VWR, Radnor, Pa.), protein levels quantified, and 50 μl of the homogenate diluted with 150 μl HPLC-grade water for C16:0 ceramide analysis. […] Samples were analyzed by ultra-performance liquid chromatography tandem mass spectrometry (UPLC-MS/MS) using a Waters Micromass Quattro Premier XE equipped with a Waters ACQUITY BEH C4 column (Waters Corp.). […] Standard curves prepared from C16:0 ceramide (#860516, Avanti Polar Lipids, Alabaster, Ala.) dissolved in ethanol were used for quantitation and were linear from 4.1 nM-1,000 nM, with an R^2 of 0.98 or greater.

ob/ob mice = assay: Leptin-deficient ob/ob mice: food intake, body weight, OGTT; format: in vivo, mouse
Experimental: To more rigorously assess the role of leptin in the anti-obesogenic effects of sphingolipid-like compound 893, the response of leptin-deficient ob/ob mice to sphingolipid-like compound 893 was measured. As expected, ob/ob mice were hyperphagic and became obese on the standard chow diet provided by University Lab Animal Resources (16% kcal from fat). Ob/ob animals were used in experiments once they attained an equivalent body weight to C57BL/6J mice fed the HFD for 24 weeks (FIG. 36).
Mice were fasted for 6 h prior to blood glucose testing at ZT10. When sphingolipid-like compound 893 treatment was combined with an OGTT, mice were treated at ZT6. Once baseline fasting blood glucose was determined using a handheld blood glucose meter (Prodigy Diabetes Care, Charlotte, N.C.) and a drop of blood collected from a tail vein nick, mice were gavaged with an oral glucose solution (20% w/v in water, 2 g/kg bodyweight) and blood glucose measured in a drop of tail vein blood at 0, 15, 30, 60 and 120 min. The area under the curve was determined using Graphpad Prism software.
Mice were singly housed and allowed to acclimate for 72 h before food intake was monitored. Food consumption was determined by monitoring the weight of food in the hopper. Initial food and body weight measurements were taken at ZT9 and final measurements were taken 16 h later to capture the active period where most consumption occurred. Home cage feeding studies were performed with C57BL/6J mice maintained on a HFD for 24 weeks (33 weeks of age), or ob/ob mice at 8 weeks of age. Mice received vehicle or 120 mg/kg sphingolipid-like compound 893 by gavage at ZT8.5. For experiments involving leptin, 18 week old, SD fed (16% kcal from fat, 2020×, Envigo) C57BL/6J mice received vehicle or 120 mg/kg sphingolipid-like compound 893 by gavage at ZT8.5. At ZT11.5, vehicle (20 mM Tris-Cl, pH 8.0) or 2 mg/kg recombinant mouse leptin (498-OB, R&D Systems, Minneapolis, Minn.) was delivered by intraperitoneal injection. The same 8 mice were used for all treatments following a 48 h washout period, and treatments were administered in the following order: vehicle, sphingolipid-like compound 893, leptin, and leptin+sphingolipid-like compound 893. All data collected from one mouse was excluded due to inadvertent pharyngeal administration during gavage reducing the n from 8 to 7 (FIG. 5a-d). […] One ob/ob mouse died during Echo MRI for unknown reasons after 6 d of treatment with sphingolipid-like compound 893; data from this mouse was analyzed prior to death.

PIKfyve = PIKfyve (Homo sapiens, UniProt Q9Y2I7); conditions: cited from earlier work
PIKfyve, sequence (Q9Y2I7 whole entry, species assumed): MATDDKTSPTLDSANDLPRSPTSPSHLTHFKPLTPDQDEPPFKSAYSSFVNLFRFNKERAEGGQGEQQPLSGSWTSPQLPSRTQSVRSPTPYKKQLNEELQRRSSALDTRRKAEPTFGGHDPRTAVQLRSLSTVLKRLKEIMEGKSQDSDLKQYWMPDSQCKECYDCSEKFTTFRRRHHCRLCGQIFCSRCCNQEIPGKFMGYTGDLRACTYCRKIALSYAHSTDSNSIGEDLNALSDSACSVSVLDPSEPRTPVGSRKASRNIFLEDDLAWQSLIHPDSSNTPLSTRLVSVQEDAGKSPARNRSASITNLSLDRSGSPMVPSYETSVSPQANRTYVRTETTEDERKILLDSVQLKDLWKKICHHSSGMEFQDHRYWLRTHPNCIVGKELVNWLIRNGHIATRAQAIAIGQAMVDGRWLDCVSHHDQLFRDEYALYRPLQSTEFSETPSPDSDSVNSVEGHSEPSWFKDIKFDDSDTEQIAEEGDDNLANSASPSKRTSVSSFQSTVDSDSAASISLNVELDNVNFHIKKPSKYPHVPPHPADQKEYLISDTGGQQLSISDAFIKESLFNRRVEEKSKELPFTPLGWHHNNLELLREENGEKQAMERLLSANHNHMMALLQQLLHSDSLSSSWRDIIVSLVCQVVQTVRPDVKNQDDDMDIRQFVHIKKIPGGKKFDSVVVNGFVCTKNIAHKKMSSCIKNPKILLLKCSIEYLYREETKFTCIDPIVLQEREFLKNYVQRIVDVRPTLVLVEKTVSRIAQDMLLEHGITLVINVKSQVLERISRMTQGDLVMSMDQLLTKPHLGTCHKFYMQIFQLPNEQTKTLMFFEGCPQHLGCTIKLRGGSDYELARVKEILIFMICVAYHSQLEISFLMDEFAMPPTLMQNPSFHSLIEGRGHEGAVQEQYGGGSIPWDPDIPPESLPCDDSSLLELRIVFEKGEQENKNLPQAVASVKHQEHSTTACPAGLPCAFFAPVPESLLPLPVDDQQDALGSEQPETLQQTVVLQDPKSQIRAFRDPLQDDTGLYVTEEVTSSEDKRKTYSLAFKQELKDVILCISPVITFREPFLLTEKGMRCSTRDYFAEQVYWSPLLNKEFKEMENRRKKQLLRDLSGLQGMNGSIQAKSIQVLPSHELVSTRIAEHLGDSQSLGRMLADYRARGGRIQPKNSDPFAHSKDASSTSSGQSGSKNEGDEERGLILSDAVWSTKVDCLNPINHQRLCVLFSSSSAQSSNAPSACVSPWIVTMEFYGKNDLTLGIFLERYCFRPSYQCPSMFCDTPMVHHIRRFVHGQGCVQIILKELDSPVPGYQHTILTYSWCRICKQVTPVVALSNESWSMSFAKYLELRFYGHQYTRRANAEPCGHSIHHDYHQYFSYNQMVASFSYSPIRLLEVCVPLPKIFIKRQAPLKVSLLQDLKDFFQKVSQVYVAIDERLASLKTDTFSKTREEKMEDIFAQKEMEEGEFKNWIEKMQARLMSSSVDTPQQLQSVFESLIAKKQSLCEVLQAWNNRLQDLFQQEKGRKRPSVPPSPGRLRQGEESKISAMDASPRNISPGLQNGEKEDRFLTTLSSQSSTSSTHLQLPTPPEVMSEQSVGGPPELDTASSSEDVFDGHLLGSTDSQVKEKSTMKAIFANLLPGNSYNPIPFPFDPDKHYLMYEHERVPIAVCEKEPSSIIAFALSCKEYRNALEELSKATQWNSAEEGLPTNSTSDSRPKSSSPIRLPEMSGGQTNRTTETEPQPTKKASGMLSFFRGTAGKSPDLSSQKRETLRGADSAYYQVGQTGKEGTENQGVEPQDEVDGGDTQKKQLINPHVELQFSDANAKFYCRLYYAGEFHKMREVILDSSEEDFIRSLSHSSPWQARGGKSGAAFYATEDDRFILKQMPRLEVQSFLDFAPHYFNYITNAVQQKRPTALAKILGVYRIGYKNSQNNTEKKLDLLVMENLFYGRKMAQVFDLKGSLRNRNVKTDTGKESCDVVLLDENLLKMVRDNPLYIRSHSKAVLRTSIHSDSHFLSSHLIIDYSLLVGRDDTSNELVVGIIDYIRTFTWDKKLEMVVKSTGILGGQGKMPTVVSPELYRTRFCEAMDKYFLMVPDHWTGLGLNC

CCCCCCCCc1ccc([C@H]2CCN[C@@H]2CO)cc1.Cl [compound 893]
Tmax [1]: 4 h | half-life [1]: 10.6 h | Cumulative food intake, repeated dosing (ob/ob mice; 120 mg/kg Mon/Wed/Fri for 2 weeks): only a modest decrease in cumulative food intake | Fasting hyperglycemia and glucose tolerance (ob/ob mice; 120 mg/kg Mon/Wed/Fri, OGTT at 14 d): failed to correct fasting hyperglycemia or restore glucose tolerance | Food intake after a single dose (ob/ob mice; single oral dose 120 mg/kg): decreased food intake | Body weight gain (ob/ob mice; six doses of 120 mg/kg over 2 weeks): 5% | Effect on PIKfyve (PIKfyve): inactivates
